Tested on: hypoxia-inducible endogenous VEGF expression in HeLa cells
Test: Hypoxia-inducible endogenous VEGF expression, VEGF ELISA of conditioned media (dose-response EC50)
Assay type: cell-based
Description: The ability of the compounds of the invention to modulate hypoxia-inducible endogenous VEGF expression may be analyzed as follows. VEGF protein levels may be monitored by an ELISA assay (R&D Systems). Briefly, HeLa cells may be cultured for 24-48 hours under hypoxic conditions (1% O2, 5% CO2, balanced with nitrogen) in the presence or absence of a compound of the invention. The conditioned media may then be assayed by ELISA, and the concentration of VEGF calculated from the standard ELISA curve of each assay.
A dose-response analysis may be performed using the ELISA assay and conditions described above. The conditions for the dose-response ELISA are analogous to those described above. A series of, e.g., seven different concentrations may be analyzed. […] Dose-response curves may be plotted using percentage inhibition versus concentration of the compound, and EC50 and CC50 values may be generated for each compound with the maximal inhibition set as 100% and the minimal inhibition as 0%.

[1] = Homo sapiens, HeLa cells under hypoxic conditions
[2] = Homo sapiens, HeLa cells, hypoxic conditions (1% O2)
[3] = HeLa cells under hypoxic conditions
[4] = Homo sapiens, HeLa cells, hypoxic conditions (1% O2, 5% CO2)

SMILES | EC50 [1] | also measured
COC(=O)N1CCc2c([nH]c3ccc(Cl)cc23)C1c1cc(F)cc(F)c1 (centres unmarked) [Compound 92] | 0.008 to 0.04 µM | –
CCOC(=O)N1CCc2c([nH]c3ccc(Cl)cc23)C1CCc1ccccc1 (centres unmarked) [Compound 511] | – | EC50 [2]: 0.04 to 0.2 µM
O=C(Oc1ccc(Cl)cc1)N1CCc2c([nH]c3ccc(Br)cc23)C1c1ccc(C(F)(F)F)cc1 (centres unmarked) [Compound 405] | – | EC50 [2]: < 0.008 µM
Fc1ccc(F)c(C2NCCc3c2[nH]c2ccc(Cl)cc32)c1 (centres unmarked) [Compound 194] | 0.2 to 1 µM | –
COc1ccc(OC(=O)N2CCc3c([nH]c4ccc(Cl)cc34)C2c2ccc(S(=O)(=O)N3CCOCC3)cc2)cc1 (centres unmarked) [Compound 455] | – | EC50 [2]: 0.008 to 0.04 µM
CCCOC(=O)N1CCc2c([nH]c3ccc(Cl)cc23)C1c1ccc(C)cc1 (centres unmarked) [Compound 42] | < 0.008 µM | –
Fc1ccccc1C1NCCc2c1[nH]c1ccc(Cl)cc21 (centres unmarked) [Compound 205] | 0.2 to 1 µM | –
COCCOc1ccc(C2c3[nH]c4ccc(Cl)cc4c3CCN2C(=O)OCc2ccccc2)cc1 (centres unmarked) [Compound 419] | – | EC50 [2]: < 0.008 µM
CCOC(=O)N1CCc2c([nH]c3ccc(Cl)cc23)C1c1cccc(Cl)c1 (centres unmarked) [Compound 20] | < 0.008 µM | –
Clc1ccc2[nH]c3c(c2c1)CCNC3c1ccccc1 (centres unmarked) [Compound 216] | 0.2 to 1 µM | –
O=[N+](O)c1ccc(C2NCCc3c2[nH]c2ccc(Br)cc32)cc1 (centres unmarked) [Compound 153] | – | EC50 [3]: 0.04 to 0.2 µM
CCOC(=O)N1CCc2c([nH]c3ccc(Br)cc23)C1c1ccc([N+](=O)O)cc1 (centres unmarked) [Compound 59] | – | EC50 [3]: 0.008 to 0.04 µM
Clc1ccc2[nH]c3c(c2c1)CCN(Cc1ccco1)C3c1ccco1 (centres unmarked) [Compound 265] | – | EC50 [3]: > 1 µM
CC(C)NCCCOc1ccc(C2c3[nH]c4ccc(Cl)cc4c3CCN2C(=O)Oc2ccc(Cl)cc2)cc1 (centres unmarked) [Compound 953] | – | EC50 [4]: 0.008 to 0.04 µM
COCCCNCCCCOc1ccc(C2c3[nH]c4ccc(Cl)cc4c3CCN2C(=O)Oc2ccc(Cl)cc2)cc1 (centres unmarked) [Compound 701] | – | EC50 [2]: 0.008 to 0.04 µM
CCOC(=O)N1CCc2c([nH]c3ccc(Cl)cc23)C1C(C)Cc1ccc(C(C)(C)C)cc1 (centres unmarked) [Compound 528] | – | EC50 [2]: 0.2 to 1 µM
O=C(Oc1ccc(Cl)cc1)N1CCc2c([nH]c3ccc(Cl)cc23)C1c1ccc(OCCCCn2ccnc2)cc1 (centres unmarked) [Compound 705] | – | EC50 [2]: 0.008 to 0.04 µM
CCCCCC1c2[nH]c3ccc(Cl)cc3c2CCN1Cc1ccccc1 (centres unmarked) [Compound 208] | 0.2 to 1 µM | –
CCOC(=O)N1CCc2c([nH]c3ccc(Cl)cc23)C1c1ccc(C(=O)N2COCC2(C)C)cc1 (centres unmarked) [Compound 441] | – | EC50 [2]: 0.008 to 0.04 µM
Clc1ccc2[nH]c3c(c2c1)CCN(Cc1ccco1)C3C1CCCCC1 (centres unmarked) [Compound 228] | 0.2 to 1 µM | –
CC(C)c1ccc(C2NCCc3c2[nH]c2ccc(Br)cc32)cc1 (centres unmarked) [Compound 112] | 0.008 to 0.04 µM | –
COc1ccc(C2NCCc3c2[nH]c2ccc(Cl)cc32)cc1 (centres unmarked) [Compound 231] | > 1 µM | –
Clc1ccc2[nH]c3c(c2c1)CCNC3c1cccnc1 (centres unmarked) [Compound 319] | > 1 µM | –

SMILES | EC50 [1] | also measured
COc1ccc(C2c3[nH]c4ccc(F)cc4c3CCN2C(=O)NC2CCCCC2)cc1 (centres unmarked) [Compound 283] | > 1 µM | –
C=CCOc1ccc(C2c3[nH]c4ccc(Cl)cc4c3CCN2C(=O)Oc2ccc(F)cc2)cc1 (centres unmarked) [Compound 409] | – | EC50 [2]: < 0.008 µM
CCNC(=O)N1CCc2c([nH]c3ccc(Cl)cc23)C1c1ccc(OCc2ccccc2)cc1 (centres unmarked) [Compound 221] | 0.2 to 1 µM | –
O=C(Oc1ccc(Cl)cc1)N1CCc2c([nH]c3ccc(Cl)cc23)C1c1ccc(OCCCCCCn2ccnc2)cc1 (centres unmarked) [Compound 790] | – | EC50 [2]: < 0.008 µM
O=C(Oc1ccc(Cl)cc1)N1CCc2c([nH]c3ccc(Cl)cc23)C1c1ccc(OCCNc2cccnc2)cc1 (centres unmarked) [#843] | – | EC50 [4]: < 0.008 µM
CN1CCN(CC(O)COc2ccc(C3c4[nH]c5ccc(Cl)cc5c4CCN3C(=O)Oc3ccc(F)cc3)cc2)CC1 (centres unmarked) [Compound 963] | – | EC50 [4]: 0.008 to 0.04 µM
Fc1cccc(C2NCCc3c2[nH]c2ccc(Cl)cc32)c1F (centres unmarked) [Compound 123] | 0.008 to 0.04 µM | –
COC(=O)NCC(O)COc1ccc(C2c3[nH]c4ccc(Cl)cc4c3CCN2C(=O)Oc2ccc(Cl)cc2)cc1 (centres unmarked) [Compound 848] | – | EC50 [4]: < 0.008 µM
COc1ccc(C2NCCc3c2[nH]c2ccccc32)cc1 (centres unmarked) [Compound 313] | > 1 µM | –
COc1ccc(C2NCCc3c2[nH]c2ccc(Cl)cc32)cc1OC (centres unmarked) [Compound 327] | > 1 µM | –
CCCOC(=O)N1CCc2c([nH]c3ccc(Cl)cc23)C1c1ccccc1F (centres unmarked) [Compound 97] | 0.008 to 0.04 µM | –
O=C(Oc1ccc(F)cc1)N1CCc2c([nH]c3ccc(Cl)cc23)C1c1ccc(OCCCCCCN2CCOCC2)cc1 (centres unmarked) [Compound 776] | – | EC50 [2]: < 0.008 µM
O=C(O)c1ccc(C2c3[nH]c4ccc(Br)cc4c3CCN2C(=O)Oc2ccc(Cl)cc2)cc1 (centres unmarked) [Compound 519] | – | EC50 [2]: 0.2 to 1 µM
CCCOC(=O)N1CCc2c([nH]c3ccc(Cl)cc23)C1c1cccc(Cl)c1 (centres unmarked) [Compound 72] | 0.008 to 0.04 µM | –
c1ccc(COc2ccc3[nH]c4c(c3c2)CCNC4c2ccoc2)cc1 (centres unmarked) [Compound 311] | > 1 µM | –
Clc1ccc2[nH]c3c(c2c1)CCNC3c1ccc(Br)cc1 (centres unmarked) [Compound 171] | 0.2 to 1 µM | –
COc1ccc(C2c3[nH]c4ccccc4c3CCN2C(=O)NC2CCCCC2)cc1 (centres unmarked) [Compound 295] | > 1 µM | –
COc1ccc(C2NC(C(=O)N3CCN(C(C)=O)CC3)Cc3c2[nH]c2ccc(Br)cc32)cc1 (centres unmarked) [Compound 244] | > 1 µM | –
Cc1ccc(OC(=O)N2CCc3c([nH]c4ccc(Cl)cc34)C2c2ccc(OCCCN(C)C)cc2)cc1 (centres unmarked) [Compound 502] | – | EC50 [2]: 0.04 to 0.2 µM
CCOC(=O)N1CCc2c([nH]c3ccc(Cl)cc23)C1c1cc(=O)c2ccccc2o1 (centres unmarked) [Compound 126] | 0.04 to 0.2 µM | –
Clc1ccc2[nH]c3c(c2c1)CCNC3C1CCCCC1 (centres unmarked) [Compound 287] | > 1 µM | –
CCOC(=O)N1CCc2c([nH]c3ccc(Br)cc23)C1c1ccc(C(=O)NC)cc1 (centres unmarked) [Compound 480] | – | EC50 [2]: 0.04 to 0.2 µM
O=C(Oc1ccc(Cl)cc1)N1CCc2c([nH]c3ccc(Cl)cc23)C1c1ccc(OCCCN2CCOCC2)cc1 (centres unmarked) [Compound 894] | – | EC50 [4]: < 0.008 µM

SMILES | EC50 [1] | also measured
CCOC(=O)N1CCc2c([nH]c3ccc(Cl)cc23)C1Cc1ccccc1 (centres unmarked) [Compound 226] | 0.2 to 1 µM | –
O=C(Oc1ccc(Cl)cc1)N1CCc2c([nH]c3ccc(Cl)cc23)C1c1ccc(OCC(O)CN2CCN(CCO)CC2)cc1 (centres unmarked) [Compound 960] | – | EC50 [4]: 0.008 to 0.04 µM
Cc1ccc(OC(=O)N2CCc3c([nH]c4ccc(Cl)cc34)C2c2ccc(OCCCn3cncn3)cc2)cc1 (centres unmarked) [Compound 882] | – | EC50 [4]: < 0.008 µM
CN1CCN(CCCCCCOc2ccc(C3c4[nH]c5ccc(Cl)cc5c4CCN3C(=O)Oc3ccc(Cl)cc3)cc2)CC1 (centres unmarked) [Compound 788] | – | EC50 [2]: 0.008 to 0.04 µM
COc1ccc(OC(=O)N2CCc3c([nH]c4ccc(Cl)cc34)C2c2ccc(OCCCn3ccnc3)cc2)cc1 (centres unmarked) [Compound 920] | – | EC50 [4]: < 0.008 µM
CCOC(=O)N1CCc2c([nH]c3ccc(Br)cc23)C1c1cccc(C(F)(F)F)c1 (centres unmarked) [Compound 32] | < 0.008 µM | –
Clc1ccc2[nH]c3c(c2c1)CCN(Cc1ccccc1)C3C1CCOC1 (centres unmarked) [Compound 264] | – | EC50 [3]: > 1 µM
CN(C)CC(=O)Nc1ccc(C2c3[nH]c4ccc(Cl)cc4c3CCN2C(=O)Oc2ccc(Cl)cc2)cc1 (centres unmarked) [Compound 491] | – | EC50 [2]: 0.04 to 0.2 µM
CCOC(=O)N1CCc2c([nH]c3ccc(Cl)cc23)C1c1ccccc1OC (centres unmarked) [Compound 169] | 0.04 to 0.2 µM | –
CCOC(=O)N1CCc2c([nH]c3ccc(Br)cc23)C1c1ccc(C(=O)N(C)CCN(C)C)cc1 (centres unmarked) [Compound 516] | – | EC50 [2]: 0.2 to 1 µM
CCOC(=O)N1CCc2c([nH]c3ccc(Br)cc23)C1c1cnc(NC)nc1 (centres unmarked) [Compound 496] | – | EC50 [2]: 0.04 to 0.2 µM
CCOC(=O)N1CCc2c([nH]c3ccc(Cl)cc23)C1c1cccc(C(=O)N(C)C)c1 (centres unmarked) [Compound 520] | – | EC50 [2]: 0.2 to 1 µM
Fc1cc(F)cc(C2NCCc3c2[nH]c2ccc(Br)cc32)c1 (centres unmarked) [Compound 155] | 0.04 to 0.2 µM | –
CCOC(=O)Oc1cccc(C2c3[nH]c4ccc(Cl)cc4c3CCN2C(=O)OCC)c1 (centres unmarked) [Compound 175] | 0.2 to 1 µM | –
COC(=O)N1CCc2c([nH]c3ccc(Cl)cc23)C1c1ccc(Cl)cc1 (centres unmarked) [Compound 70] | 0.008 to 0.04 µM | –
CCOC(=O)N1CCc2c([nH]c3ccc(Br)cc23)C1Cc1ccccc1 (centres unmarked) [Compound 211] | 0.2 to 1 µM | –
CNc1ncc(C2c3[nH]c4ccc(Br)cc4c3CCN2C(=O)Oc2ccc(OC)cc2)cn1 (centres unmarked) [Compound 503] | – | EC50 [2]: 0.04 to 0.2 µM
CC(C)COC(=O)N1CCc2c([nH]c3ccc(Cl)cc23)C1c1ccccc1 (centres unmarked) [Compound 122] | 0.008 to 0.04 µM | –
O=C(Oc1ccc(Cl)cc1)N1CCc2c([nH]c3ccc(Cl)cc23)C1c1ccc(N2CCCC2)cc1 (centres unmarked) [Compound 984] | – | EC50 [4]: 0.2 to 1 µM
CC(C)NCCCCCCOc1ccc(C2c3[nH]c4ccc(Cl)cc4c3CCN2C(=O)Oc2ccc(F)cc2)cc1 (centres unmarked) [Compound 774] | – | EC50 [2]: 0.008 to 0.04 µM
COC(=O)N1CCc2c([nH]c3ccc(Cl)cc23)C1c1ccc(F)cc1 (centres unmarked) [Compound 68] | 0.008 to 0.04 µM | –
CN(C)CCCOc1ccc(C2c3[nH]c4ccc(Cl)cc4c3CCN2C(=O)Oc2ccc(Cl)cc2)cc1 (centres unmarked) [Compound 479] | – | EC50 (HeLa cells, hypoxic conditions (1% O2)): 0.04 to 0.2 µM
O=C(Oc1ccc(Cl)cc1)N1CCc2c([nH]c3ccc(Cl)cc23)C1c1ccc(OCCCCCCNCCO)cc1 (centres unmarked) [Compound 782] | – | EC50 [2]: < 0.008 µM

Now from value to compound, other results behind:

EC50 [1] | SMILES | also measured
0.008 to 0.04 µM | O=C(Oc1ccc(Cl)cc1)N1CCc2c([nH]c3ccc(Cl)cc23)C1c1ccc(S(=O)(=O)N2CCOCC2)cc1 (centres unmarked) [Compound 346] | –
0.04 to 0.2 µM | CCOC(=O)COc1ccc(C2c3[nH]c4ccc(Cl)cc4c3CCN2C(=O)OCC)cc1 (centres unmarked) [Compound 365] | –
< 0.008 µM | COC(=O)N1CCc2c([nH]c3ccc(Cl)cc23)C1c1ccc(OCCCn2ccnc2)cc1 (centres unmarked) [Compound 386] | –
0.008 to 0.04 µM | Cc1ccc2[nH]c3c(c2c1)CCN(C(=O)Oc1ccc(Cl)cc1)C3c1ccc(C(C)C)cc1 (centres unmarked) [Compound 344] | –
0.008 to 0.04 µM | Cc1ccc2[nH]c3c(c2c1)CCN(c1ncccn1)C3c1ccc(C(C)C)cc1 (centres unmarked) [Compound 345] | –

— patent publication US8076352B2, “Administration of carboline derivatives useful in the treatment of cancer and other diseases” (PTC Therapeutics, Inc., priority 2004, dated 2011)
